The text below walks through data of patent publication US20250230138A1, “COMPOUNDS HAVING A T-STRUCTURE FORMED BY AT LEAST FOUR CYCLES FOR USE IN THE TREATMENT OF CANCER AND OTHER INDICATIONS” (TheRas, Inc., priority 2022, published 2025).

Test [1] concerns the target Cys242 in human PIK3CA (157-299) (Homo sapiens (Human), UniProt P42336). The experiment in a line: Covalent modification assay using MALDI-TOF MS. The format is biochemical. The following applies: 4 h reaction time point. An outline of the steps:
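PIK3CA (157-299) at 3.33 μM or 1 μM in 20 mM HEPES, 150 mM NaCl, 2 mM MgCl2, pH 7.3 was incubated with compound (from 10 mM DMSO stocks) in the dark at room temperature for 15 min, 30 min, 2 h or 4 h. Linear-mode MALDI-TOF peak heights gave percent modification.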

The next test relates to pAKT in BT474 cells. The experiment in a line: Cell-based pAKT HTRF assay in BT474 cells. The following applies: BT474 cells, 4 hr incubation, read-out: pAKT inhibition IC50 in BT474 cells. The method, boiled down: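 Treatment lasts 4 hr in DMEM/10% FBS at 0.25% DMSO over nine 3-fold dilutions from 3 μM. The lysate is then probed by HTRF.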
Where [2] appears, read: 1 μM protein target, 1:5 protein to compound ratio (compounds 853-1279).
The mark [3] stands for this setting: 3.33 μM protein target, 1:7.5 protein to compound ratio (compounds 1-852).
Where [4] appears, read: Homo sapiens, BT-474, Compounds 10-999.

The structures appear in SMILES notation. Read-outs that look alike come from different tables or passages of the source.

Cys242 in human PIK3CA (157-299), sequence (P42336 157-299): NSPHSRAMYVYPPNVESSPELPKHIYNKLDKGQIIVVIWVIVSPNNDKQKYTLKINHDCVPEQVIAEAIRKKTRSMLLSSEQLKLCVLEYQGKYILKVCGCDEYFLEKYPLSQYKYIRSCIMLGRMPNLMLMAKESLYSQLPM

For `C=CC(=O)N1CCn2nc(-c3nc(-c4cccc(=O)n4C)c4ccsc4c3-c3c(F)cc(F)cc3OCCOC)cc2C1C` (stereo not drawn) [Compound 1020], the “% of modification” value in test [1] (setting [2]) is “A (percent of modification of PIK3CA protein ≥75%)”. For the same molecule, the IC50 in the test with pAKT in BT474 cells (Compounds 1000-1279) was less than 100 nM.
On to `C=CC(=O)N1CC(n2cc(-c3nc(-c4ccc5c(c4)CCNC5)c4c(c3-c3ccc(F)cc3OC)CCC4)cn2)C1` [Compound 97, 1-[3-[4-[4-(4-fluoro-2-methoxy-phenyl)-1-(1,2,3,4-tetrahydroisoquinolin-6-yl)-6,7-dihydro-5H-cyclopenta[c]pyridin-3-yl]pyrazol-1-yl]azetidin-1-yl]prop-2-en-1-one], for which the “% of modification” value in test [1] (setting [3]) is recorded as “A (percent of modification of PIK3CA protein ≥75%)”. Further, the IC50 in the test on pAKT in BT474 cells (setting [4]) is 100 to 1000 nM.
`C=CC(=O)N1CCn2nc(-c3nc(-c4ccc5c(c4)CCN(C)C5)c4ccsc4c3-c3c(F)cc(F)cc3OC3CC3)cc2[C@@H]1C` [Compound 548]: the “% of modification” value in test [1] (setting [3]) is “A (percent of modification of PIK3CA protein ≥75%)”. Besides, the IC50 in the test with pAKT in BT474 cells (Compounds 10-999) is less than 100 nM.
As to `C=CC(=O)N1CCn2nc(-c3nc(-c4cn(C)cn4)c4ccsc4c3-c3c(F)cc(F)cc3OC[C@@H](C)O)cc2[C@H]1C` [Compound 744], in test [1] (setting [3]), the “% of modification” value is “A (percent of modification of PIK3CA protein ≥75%)”. In the test with pAKT in BT474 cells (Compounds 10-999), the IC50 was less than 100 nM.
Taken in the same sequence, the figures for `C=CC(=O)N1CCn2nc(-c3nc(-c4ccc5oc(C)nc5c4)c4ccsc4c3-c3c(F)cc(F)cc3OCCO)cc2C1C` (stereo not drawn) [Compound 789] were “A (percent of modification of PIK3CA protein ≥75%)” and less than 100 nM.
Taken in the same sequence, the figures for `C=CC(=O)N1CCn2nc(-c3nc(-c4cn(C)cn4)c4ccsc4c3-c3c(F)cc(F)cc3OCCO)cc2C1C` (stereo not drawn) [Compound 786] were “A (percent of modification of PIK3CA protein ≥75%)” and less than 100 nM.
For the molecule `C=CC(=O)N1CCn2cc(-c3nc(-c4ccc(=O)n(C)c4)c4ccsc4c3-c3ccc(F)cc3OCC3CCN(C)C(=O)C3)nc2C1` (stereo not drawn) [Compound 264], in test [1] (setting [3]), the “% of modification” value is reported as “A (percent of modification of PIK3CA protein ≥75%)”. In addition, in the test with pAKT in BT474 cells (Compounds 10-999), the IC50 was more than 3000 nM.
`C=CC(=O)N1CCn2nc(-c3nc(-c4ccc(C(=O)NC5CN(C)C5)cc4)c4ccsc4c3-c3c(F)cc(F)cc3OCCOC)cc2C1C` (stereo not drawn) [Compound 1095]: in test [1] (setting [2]), the “% of modification” value is “A (percent of modification of PIK3CA protein ≥75%)”. The half-maximal inhibitory concentration (IC50) in the test on pAKT in BT474 cells (Compounds 1000-1279) is less than 100 nM.
For the molecule `C=CC(=O)N1CCn2nc(-c3nc(-c4ccc5c(c4)CCN(C(C)C)C5)c4ccsc4c3-c3ccc(F)cc3F)cc2C1` [Compound 250], in test [1] (setting [3]), the “% of modification” value is on record as “A (percent of modification of PIK3CA protein ≥75%)”. Also, in the test on pAKT in BT474 cells (Compounds 10-999), the half-maximal inhibitory concentration (IC50) was less than 100 nM.
Taken in the same sequence, the figures for `C=CC(=O)N1CCc2nc(-c3nc(-c4cnn(CCO)c4)c4ccsc4c3-c3ccc(F)cc3OCCOC)sc2C1` [Compound 126] were “A (percent of modification of PIK3CA protein ≥75%)” and less than 100 nM.
Taken in the same sequence, the figures for `C=CC(=O)N1CC[C@@H](n2ccc(-c3nc(-c4cnn(C)c4)c4ccsc4c3-c3ccc(F)cc3OC(C)C)n2)C1` [Compound 329] were “A (percent of modification of PIK3CA protein ≥75%)” and 100 to 1000 nM.
As for `C=CC(=O)N1CCc2nc(-c3nc(-c4ccc5c(c4)CCN(C)C5)c4ccsc4c3-c3c(F)cc(F)cc3OC(C)C)sc2C1` [Compound 312], the “% of modification” value in test [1] (setting [3]) is “A (percent of modification of PIK3CA protein ≥75%)”. Further, the IC50 with pAKT in BT474 cells (Compounds 10-999) was less than 100 nM.
Take `C=CC(=O)N1CCn2nc(-c3nc(-c4cnnc(C)c4)c4ccsc4c3-c3c(F)cc(F)cc3OCCOC)cc2C1C` (stereo not drawn) [Compound 764]: the “% of modification” value in test [1] (setting [3]) is given as “A (percent of modification of PIK3CA protein ≥75%)”. Moreover, in the test on pAKT in BT474 cells (Compounds 10-999), the IC50 is less than 100 nM.
Taken in the same sequence, the figures for `C=CC(=O)N1Cc2cc(-c3nc(-c4cnn(C5CCC5)c4)c4ccsc4c3-c3c(F)cc(F)cc3OCCOC)nn2C[C@H]1C` [Compound 723] were “A (percent of modification of PIK3CA protein ≥75%)” and less than 100 nM.
Taken in the same sequence, the figures for `C=CC(=O)N1CCn2nc(-c3nc(-c4cnn(C)c4)c4ccsc4c3-c3ccc(F)cc3OC(C)C)c(OC)c2C1` [Compound 313] were “A (percent of modification of PIK3CA protein ≥75%)” and less than 100 nM.
Taken in the same sequence, the figures for `C=CC(=O)N1CC(n2cc(-c3nc(-c4ccc5c(c4)CCNC5)c4c(c3-c3ccc(F)cc3OCCOC)CCC4)cn2)C1` [Compound 109] were “A (percent of modification of PIK3CA protein ≥75%)” and 100 to 1000 nM.
Take `C=CC(=O)N1CCc2nc(-c3nc(-c4ncn(C)n4)c4ccsc4c3-c3c(F)cc(F)cc3OC(C)C)sc2C1` [Compound 390]: the “% of modification” value in test [1] (setting [3]) is reported as “A (percent of modification of PIK3CA protein ≥75%)”. Moreover, the IC50 with pAKT in BT474 cells (Compounds 10-999) was less than 100 nM.
As for `C=CC(=O)N1CCn2nc(-c3nc(-c4ccc(=O)n(C)c4)c4ccsc4c3-c3ccc(F)cc3OC(F)F)cc2C1` [Compound 223], in test [1] (setting [3]), the “% of modification” value was “A (percent of modification of PIK3CA protein ≥75%)”. For the same molecule, the IC50 in the test on pAKT in BT474 cells (Compounds 10-999) was less than 100 nM.
With `C=CC(=O)N1CC(n2cc(-c3nc(-c4ccc5c(c4)CCNC5)c4ccsc4c3-c3ccc(F)cc3OC)ccc2=O)C1` [Compound 110, 5-[7-(4-fluoro-2-methoxy-phenyl)-4-(1,2,3,4-tetrahydroisoquinolin-6-yl)thieno[3,2-c]pyridin-6-yl]-1-(1-prop-2-enoylazetidin-3-yl)pyridin-2-one], the “% of modification” value in test [1] (setting [3]) is recorded as “A (percent of modification of PIK3CA protein ≥75%)”. Further, in the test on pAKT in BT474 cells (setting [4]), the IC50 lay within 100 to 1000 nM.
Turning to `C=CC(=O)N1CCn2nc(-c3nc(-c4cnn(C)c4)c4ccsc4c3-c3ccc(F)cc3Cl)cc2C1` [Compound 291], in test [1] (setting [3]), the “% of modification” value was “A (percent of modification of PIK3CA protein ≥75%)”. In the test on pAKT in BT474 cells (Compounds 10-999), the IC50 was less than 100 nM.
Taken in the same sequence, the figures for `C=CC(=O)N1CCn2nc(-c3nc(-c4ccnc(N)c4)c4ccsc4c3-c3ccc(F)cc3OCCO)nc2C1` [Compound 197] were “A (percent of modification of PIK3CA protein ≥75%)” and less than 100 nM.
Taken in the same sequence, the figures for `C=CC(=O)N1CCc2nc(-c3nc(-c4ccc5c(c4)C(O)CC5)c4ccsc4c3-c3ccc(F)cc3OCCOC)sc2C1` (stereo not drawn) [Compound 152] were “A (percent of modification of PIK3CA protein ≥75%)” and less than 100 nM.
Regarding `C=CC(=O)N1CCc2cc(-c3nc(-c4cnc5c(cnn5C)c4)c4ccsc4c3-c3c(F)cc(F)cc3OCCOC)nn2CC1` [Compound 1023], in test [1] (setting [2]), the “% of modification” value was “A (percent of modification of PIK3CA protein ≥75%)”. In the test on pAKT in BT474 cells (Compounds 1000-1279), the IC50 was less than 100 nM.
`C=CC(=O)N1CCn2nc(-c3nc(-c4ccc5c(c4)NC(=O)C5)c4ccsc4c3-c3c(F)cc(F)cc3OCCOC)cc2C1C` (stereo not drawn) [Compound 989]: the “% of modification” value in test [1] (setting [2]) was “A (percent of modification of PIK3CA protein ≥75%)”. In addition, the IC50 in the test on pAKT in BT474 cells (Compounds 10-999) was less than 100 nM.
With `C=CC(=O)N1CCn2nc(-c3nc(-c4cnc5c(c4)CN(CCO)CC5)c4ccsc4c3-c3c(F)cc(F)cc3OCCOC)cc2[C@H]1C` [Compound 1160], the “% of modification” value in test [1] (setting [2]) was “A (percent of modification of PIK3CA protein ≥75%)”. The IC50 with pAKT in BT474 cells (Compounds 1000-1279) is less than 100 nM.
Turning to `C=CC(=O)N1Cc2cc(-c3nc(-c4ccc5nncn5c4)c4ccsc4c3-c3c(F)cc(F)cc3OCCO)nn2CC1C` (stereo not drawn) [Compound 903], in test [1] (setting [2]), the “% of modification” value is given as “A (percent of modification of PIK3CA protein ≥75%)”. Further, in the test on pAKT in BT474 cells (Compounds 10-999), the IC50 was less than 100 nM.
For `C=CC(=O)N1CCn2nc(-c3nc(-c4ccc(=O)n(C)c4)c4ccsc4c3-c3ccc(F)cc3OCCOC)cc2C1` [Compound 195, 5-[7-[4-fluoro-2-(2-methoxyethoxy)phenyl]-6-(5-prop-2-enoyl-6,7-dihydro-4H-pyrazolo[1,5-a]pyrazin-2-yl)thieno[3,2-c]pyridin-4-yl]-1-methyl-pyridin-2-one], the “% of modification” value in test [1] (setting [3]) was “A (percent of modification of PIK3CA protein ≥75%)”. Also, the IC50 in the test on pAKT in BT474 cells (setting [4]) was less than 100 nM.
In the case of `C=CC(=O)N1CCn2nc(-c3nc(-c4ccc5cnn(C)c5c4)c4ccsc4c3-c3c(F)cc(F)cc3OCC(C)O)cc2C1C` (stereo not drawn) [Compound 677], in test [1] (setting [3]), the “% of modification” value is “A (percent of modification of PIK3CA protein ≥75%)”. The IC50 with pAKT in BT474 cells (Compounds 10-999) was less than 100 nM.
Taken in the same sequence, the figures for `C=C(F)C(=O)N1CCn2nc(-c3nc(-c4ccc5c(c4)CNC5=O)c4ccsc4c3-c3c(F)cc(F)cc3OC(C)C)nc2C1` [Compound 315] were “A (percent of modification of PIK3CA protein ≥75%)” and less than 100 nM.
`C=CC(=O)N1CC(n2cc(-c3nc(-c4ccc5c(c4)CCNC5)c4c(c3-c3ccc(F)cc3OCCOC)CCC4)ccc2=O)C1` [Compound 154]: in test [1] (setting [3]), the “% of modification” value is “A (percent of modification of PIK3CA protein ≥75%)”. The IC50 in the test with pAKT in BT474 cells (Compounds 10-999) was less than 100 nM.
With `C=CC(=O)N1CCn2nc(-c3nc(-c4ccc5c(cnn5C)c4)c4ccsc4c3-c3c(F)cc(F)cc3OC3CC(F)(F)C3)cc2C1C` (stereo not drawn) [Compound 1240], the “% of modification” value in test [1] (setting [2]) was “A (percent of modification of PIK3CA protein ≥75%)”. For the same molecule, the IC50 with pAKT in BT474 cells (Compounds 1000-1279) was less than 100 nM.
Consider `C=CC(=O)N1CCc2cc(-c3nc(-c4ccc5nn(C)cc5c4)c4ccsc4c3-c3c(F)cc(F)cc3OCCO)nn2CC1` [Compound 1200], for which, in test [1] (setting [2]), the “% of modification” value is “A (percent of modification of PIK3CA protein ≥75%)”. In the test with pAKT in BT474 cells (Compounds 1000-1279), the IC50 was less than 100 nM.
For `C=CC(=O)NCc1cc(-c2nc(-c3ccc4c(c3)CCNC4)c3ccsc3c2-c2ccc(F)cc2OCCOC)ccc1OC` [Compound 74], the “% of modification” value in test [1] (setting [3]) is recorded as “D (percent of modification <25%)”. Also, the concentration for half-maximal inhibition (IC50) with pAKT in BT474 cells (Compounds 10-999) fell in the range of 1000 to 3000 nM.
